Test results taken from patent US20050277586A1, “Peptide chemically modified with polyethylene glycol” (priority 2002, published 2005).

Assays:
[1] = biological target: phosphatidyl serine (binding of human Factor VIII); assay: Affinity for phosphatidyl serine (EIA, inhibition of human Factor VIII binding); settings: in the presence of 5% BSA, human Factor VIII 1 μg/mL
Description: The specific affinity of the peptide for phosphatidyl serine was evaluated by measuring activity of the peptide for inhibiting the binding of the human Factor VIII to phosphatidyl serine by using human Factor VIII which is known to bind to phosphatidyl serine but not to phosphatidyl choline in the presence of serum albumin. To be more specific, 100 μL of ethanol solution containing 10 μg/mL of phospholipids at a phosphatidyl serine (manufactured by SIGMA): phosphatidyl choline (manufactured by SIGMA) ratio of 3:7 was added to the wells of a 96 well plate (Immulon I, manufactured by Dynatech), and exsiccated by using a centrifugal evaporator (EC-95C, manufactured by Sakuma Seisakusho) at 40° C. for 40 minutes. 200 μL each of TBS (10 mM Tris-HCl (pH 7.4) containing 1% bovine serum albumin (BSA Fraction V, hereinafter referred to as BSA, manufactured by Seikagaku Corporation) and 0.9% (W/V) NaCl solution were added to each well, and the wells were blocked by allowing the plate to stand at 37° C. for 2.5 hours. After washing the plate with water, 100 μL of TBS solution supplemented with 5% BSA mixed with human Factor VIII (manufactured by American Diagnostica) at a final concentration 1 μg/mL and the peptide of predetermined dose prepared in Example 1 was added to each well, and the reaction was allowed to take place at 4° C. for 24 hours.
After the completion of the reaction, the human Factor VIII that became bound to the phosphatidyl serine was measured by enzyme immunoassay (EIA) in accordance with the general procedure described in a book (“Enzyme Immunoassay (3rd ed.)”, Eiji Ishikawa et al., Igaku-Shoin, 1987). To be more specific, the measurement was conducted by using anti-human Factor VIII mouse monoclonal antibody (ESH8, manufactured by American Diagnostica) for the primary antibody, horseradish peroxidase-labeled anti-mouse IgG antibody (P0260, manufactured by Daco) for the secondary antibody, and tetramethylbenzidine for the chromogenic substrate, and measuring the absorption at a wavelength of 450 nm by using a reference wavelength of 630 nm on a spectrophotometer (NJ-2100, manufactured by Intermed).
Intensity of the affinity of the peptide for the phosphatidyl serine was evaluated by using the value obtained by subtracting the absorption of the well having no human Factor VIII added thereto from the absorption of the well having only the human Factor VIII added thereto as the control value (100%), and designating the peptide concentration at which the value 0.5 was obtained when the value obtained by subtracting the absorption of the well having only the peptide added thereto from the absorption of the well having a mixture of the human Factor VIII and the peptide added thereto were divided by the control value as the IC50 value, and evaluating the intensity to be ++ when the IC50 value was up to 1 μM, and + when the intensity was more than 1 μM but not more than 10 μM. It is to be noted that the specific affinity was evaluated to be none when the intensity was 10 μM or more.

[2] = Affinity for phosphatidyl serine by surface plasmon resonance (Biacore 2000); assay type: binding; settings: in the presence of 0.1 mg/mL BSA
Description: The specific affinity of the peptide for phosphatidyl serine was evaluated by means of surface plasmon resonance (SPR) using Biacore 2000 (manufactured by Biacore). To be more specific, phosphatidyl choline was immobilized on flow cell 1, and 50% of phosphatidyl serine and 50% of phosphatidyl choline were immobilized on flow cell 2 of HPA chip (manufactured by Biacore), and ability of the peptide to bind to the phospholipid was evaluated in the presence of 0.1 mg/mL BSA to thereby evaluate the affinity.

plasmid (pUC119) = assay: Binding ability to plasmid (agarose gel electrophoresis); settings: charge ratio (±ratio) of 3
Description: The plasmid prepared by the procedure described in Example 7 (pUC119; final concentration, 20 μg/mL) and the peptides prepared by the procedure described in Examples 1 to 3 were mixed in 20 mM Tris HCl buffer (pH=7.2) containing 150 mM NaCl at a charge ratio (±ratio) of 0 to 3, and the mixture was allowed to stand at 37° C. for 30 minutes. Electrophoresis was then conducted on 1% agarose gel to thereby determine the binding of the plasmid and the peptide.
(§1) The ±ratio (charge ratio) indicated in FIG. 11 is the ratio of the number (+) of the positively-charged groups in the peptide to the number (−) of negatively-charged groups in the plasmid. As evident in FIG. 11, the amount of plasmid that became bound to the peptide increased with the increase in the charge ratio (±ratio), and the plasmid was fully bound to the peptide at a charge ratio (±ratio) of 3. The peptides of SEQ ID NO: 2 to SEQ ID NO: 24 were also found to bind at a charge ratio (±ratio) of 3.

nuclease Bal 31 = assay: Nuclease resistance-imparting ability for natural (P=O form) oligonucleotide; assay type: biochemical; settings: 2 U Bal 31, 30° C., 60 minutes
Description: Nuclease resistance-imparting ability for natural (P═O form) oligonucleotide was evaluated. To be more specific, 2 U of nuclease Bal 31 (manufactured by Takara Shuzo) was added to 20 mM Tris-HCl buffer (pH=8) containing 50 μM of the peptide of SEQ ID NO: 1 prepared in Example 1, 3 μM of P═O form oligonucleotide prepared in Example 6, 150 mM NaCl, 12 mM MgCl2, and 12 mM CaC12, and the reaction was allowed to take place at 30° C. for 60 minutes. Next, the oligonucleotide which escaped from the decomposition was extracted with phenol/chloroform, and subjected to electrophoresis by the procedure described in Example 8 to stain the oligonucleotide.

21mer oligonucleotide = assay: Binding ability to oligonucleotide (gel electrophoresis); settings: charge ratio (±ratio) of 10
Description: The 21mer oligonucleotide prepared by the procedure described in Example 6 (final concentration, 6.7 μM) and the peptide prepared by the procedure described in Examples 1 to 3 were mixed in 20 mM Tris-HCl buffer (pH=7.2) containing 150 mM NaCl at a charge ratio (±ratio) of 0 to 10, and the mixture was allowed to stand at 37° C. for 30 minutes. Next, 7.5 μL of this solution was mixed with an equal amount of Tris-borate buffer (pH=8.2) containing 80% formamide, and electrophoresis was conducted on 25% polyacrylamide gel containing 7M urea. After the electrophoresis, the gel was stained with 5% aqueous solution of Stains all (manufactured by Funakoshi) containing 50% formamide and washed with water to thereby determine the binding of the oligonucleotide and the peptide.
as §1, with “10” for “11”, “nucleic acid.” for “plasmid.”, “10,” for “11,”, “oligonucleotide” for “plasmid”, “10.” for “3.”

IC50 [1]: < 1000 nM | Binding of plasmid to the peptide (plasmid (pUC119)): fully bound | Binding of oligonucleotide to the peptide (21mer oligonucleotide): fully bound
Sequence: TRYLRIHPRSWVHQIALRLRYLRIHPRSWVHQIALRS [SEQ ID NO: 1]
Binding to flow cell 2 (50% phosphatidyl serine, 50% phosphatidyl choline) and flow cell 1 (phosphatidyl choline) [2]: stronger | Nuclease resistance-imparting ability for natural (P=O form) oligonucleotide (nuclease Bal 31): exhibit nuclease resistance-imparting ability
